Tested on: VCR resistant murine leukemia (P388/VCR) cells
Experiment: In vivo overcoming of resistance in VCR resistant murine leukemia (P388/VCR) bearing mice, etoposide with compound 20 mg/kg
Set-up: species or system CDF1 female mice
Conditions: VP-16 3 mg/kg + compound 20 mg/kg, i.v. once per day for 5 days; for Rate of prolongation of life T/C: vs control
Method: In Vivo Test of Action Suppressing Proliferation of Cancer Cells by Combined Administration of Anti-cancer Drug Etoposide
Effect of Overcoming Resistance to an Anti-cancer Drug for VCR Resistant Murine Leukemia Cell Bearing Mice
1.2×10^5 VCR resistant murine leukemia (P388/VCR) cells were transplanted intravenously into groups of 5-6 CDF1 female mice, then the compound of the present invention (20 mg/kg) and Etoposide (VP-16) (3 mg/kg) were administered intravenously once per day for 5 days, after dissolving them in a physiological salt solution containing a small amount of hydrochloric acid. The observation was started from the next day. The number of survival days were found and the life prolonging rate (T/C) with respect to the controls was found. The effect in overcoming resistance to an anti-cancer drug (T/V) was found by the following formula.
Effect of overcoming resistance to the anti-cancer drug (T/V) %
=[(Rate of prolongation of life using VP-16 and the present compound (T/C))/(Rate of prolongation of life using VP-16 alone (T/C))]×100

Structure (SMILES) | Average days of survival [days] | Rate of prolongation of life T/C [%]
CCOC(=O)C1=C(c2ccc(-n3c(C)nc4cnccc43)cc2)NC(C)=C(C(=O)OCC#Cc2cccnc2)C1C(C)c1ccccc1 (stereo not drawn) [Compound 7, 6-Methyl-4-(α-methylbenzyl)-2-[4-(2-methylimidazo[4,5-c]pyridin-1-yl)phenyl]-1,4-dihydropyridin-3,5-dicarboxylate 3-ethylester 5-[3-(3-pyridyl)-2-propynyl]ester] | 13.4 | 146
CCOC(=O)C1=C(c2ccc(-n3c(C)nc4cnccc43)cc2)NC(C)=C(C(=O)OCC#Cc2cccnc2)C1CCc1ccccc1Cl (stereo not shown) [Compound 11, 4-[2-(2-Chlorophenyl)ethyl]-6-methyl-2-[4-(2-methylimidazo[4,5-c]pyridin-1-yl)phenyl]-1,4-dihydropyridin-3 ,5-dicarboxylate 3-ethylester 5-[3-(3-pyridyl)-2-propynyl]ester] | 15.8 | 155
CCOC(=O)C1=C(c2ccc(-n3c(C)nc4cnccc43)cc2)NC(C)=C(C(=O)OCC#Cc2cccnc2)C1/C=C/c1ccccc1 (stereo not shown) [Compound 10, 6-Methyl-2-[4-(2-methylimidazo[4,5-c]pyridin-1-yl)phenyl]-4-[(E)-2-phenylethenyl]-1,4-dihydropyridin-3,5-dicarboxylate 3-ethylester 5-[3-(3-pyridyl)-2-propynyl]ester] | 17.0 | 185
CCOC(=O)C1=C(c2ccc(-n3c(C)nc4cnccc43)cc2)NC(C)=C(C(=O)OCCC#Cc2cccnc2)C1CCc1ccccc1 (stereo not shown) [Compound 47, 6-Methyl-2-[4-(2-methylimidazo[4,5-c]pyridin-1-yl)phenyl]-4-(2-phenylethyl)-1,4-dihydropyridin-3,5-dicarboxylate 3-ethylester 5-[4-(3-pyridyl)-3-butynyl]ester] | 15.2 | 148
CCOC(=O)C1=C(c2ccc(-n3c(C)nc4cnccc43)cc2)NC(C)=C(C(=O)OCC#Cc2cccnc2)C1CCc1ccccc1OC (stereo not shown) [Compound 13, 4-[2-(2-methoxyphenyl)ethyl]-6-methyl-2-[4-(2-methylimidazo[4,5-c]pyridin-1-yl)phenyl]-1,4-dihydropyridin-3,5-dicarboxylate 3-ethylester 5-[3-(3-pyridyl)-2-propynyly]ester] | 15.7 | 154
CCOC(=O)C1=C(c2ccc(-n3c(C)nc4cnccc43)cc2)NC(C)=C(C(=O)OCC#Cc2cccnc2)C1CC(c1ccccc1)c1ccccc1 (stereo not shown) [Compound 60] | 16.3 | 158
CCOC(=O)C1=C(c2ccc(-n3c(C)nc4cnccc43)cc2)NC(C)=C(C(=O)OCC#Cc2cccnc2)C1C1CCCCC1 (stereo not shown) [Compound 4, 4-Cyclohexyl-6-methyl-2-[4-(2-methylimidazo[4,5-c]pyridin-1-yl)phenyl]-1,4-dihydropyridin-3,5-dicarboxylate 3-ethylester 5-[3-(3-pyridyl)-2-propynyl]ester] | 14.8 | 161
CCOC(=O)C1=C(c2ccc(-n3c(C)nc4cnccc43)cc2)NC(C)=C(C(=O)OCC#Cc2cnc3ccccc3c2)C1CCc1ccccc1 (stereo not shown) [Compound 18, 6-Methyl-2-[4-(2-methylimidazo[4,5-c]pyridin-1-yl)phenyl]-4-(2-phenylethyl)-1,4-dihydropyridin-3,5-dicarboxylate 3-ethylester 5-[3-(3-quinolyl)-2-propynyl]ester] | 16.0 | 157
